Test results from patent US9884806B2, “Cyclic vinylogous amides as bromodomain inhibitors” (ICAHN SCHOOL OF MEDICINE AT MOUNT SINAI, priority 2013, dated 2018).

Key:
[1] = target: T1, BRD4_2 (Homo sapiens, UniProt O60885); test: Fluorescence anisotropy binding assay (competition with FITC-labeled MS417 probe), BRD4_2; settings: FITC-MS417 probe 80 nM, PBS pH 7.4, 1 hour, 25° C.
T1 construct: contains two tandem bromodomains (BrD1 and BrD2)

[2] = target: T2, first bromodomain (BrD1) of human BRD4 (Homo sapiens, UniProt O60885); test: Fluorescence anisotropy binding assay (competition with FITC-labeled MS417 probe); settings: FITC-MS417 probe 80 nM, PBS pH 7.4, 1 hour, 25° C., read-out: BRD4_1 IC50
T2 construct: the first bromodomain (BrD1) of human BRD4; poly-His (cleaved yes); made in house
Description: Fluorescence Anisotropy Binding Assay
Expression and purification of the first bromodomain (BrD1) of human BRD4 in poly-His tag form was performed using a procedure described in the literature [See Zeng et al. Structure 16, 643-652 (2008) and Zhang et al., J Biol Chem 287, 28840-28851 (2012).] The protein was purified by using affinity chromatography on a nickel-IDA column (Invitrogen), followed by the removal of poly-His tag by thrombin cleavage.
Binding affinity of the newly synthesized compounds to the BRD4 BrD1 was assessed in a fluorescence anisotropy assay using a fluorescein isothiocyanate (FITC)-labeled MS417 as an assay probe (Zhang et al. 2008 op.cit.). Competition binding was performed with a BrD protein (0.25 to 1 μM) and the fluorescent probe (80 nM), and increasing concentration of unlabeled competing ligand in a PBS buffer (pH 7.4) in total volume of 80 μL. Measurements were obtained after 1 hour incubation of the fluorescent ligand and the protein at 25° C. with Safire 2 microplate reader (Tecan). In the assay, fluorescent ligand concentration was ≦2Kd, and protein concentration was set at which 50-80% of fluorescent ligand is bound. Dissociation constant of a competing ligand was calculated with the correction to Cheng-Prussoff equation introduced by Nicolovska-Coleska and colleagues [Nikolovska-Coleska, Z. et al., Anal Biochem 332, 261-273 (2004). Assuming one-site competitive binding model, the equation used to calculate Ki's from IC50 values recovered from fitting data using Prism:
[formula] where [I50] is the concentration of free inhibitor at 50% inhibition, [L50], the concentration of free labeled ligand at 50% inhibition, and [P0], concentration of free protein at 0% inhibition. Note that Kd for each protein-probe pair is the limit of resolvable Ki in a competition assay.

Row | Compound | IC50 [1] [µM] | IC50 [2] [µM]
1 | COc1cc(C(=O)NC2CCCCC2)ccc1NC1=C(C)C(=O)CC1 [Example 04-54, N-cyclohexyl-3-methoxy-4-((2-methyl-3-oxocyclopent-1-en-1-yl)amino)-benzamide] | 1 to 10 | 1 to 10
2 | COc1ccc(NC(=O)c2ccc(Cl)c(NC3=C(C#N)C(=O)CCC3)c2)c(C)c1 [Example 05-36, 4-chloro-3-((2-cyano-3-oxocyclohex-1-en-1-yl)amino)-N-(4-methoxy-2-methylphenyl)benzamide] | > 10 | > 10
3 | CNC(=O)c1ccc(NC2=C(C)C(=O)CC2)cc1OC [Example 04-65] | 1 to 10 | 1 to 10
4 | COC(=O)c1ccc(NC2=CC(=O)CC2)cc1 [Example 01-1] | 1 to 10 | 1 to 10
5 | CC1=C(Nc2ccc(C(=O)N(C)C)cc2)CCC1=O [Example 03-20, N,N-dimethyl-4-((2-methyl-3-oxocyclopent-1-en-1-yl)amino)benzamide] | > 10 | > 10
6 | CC1=C(N[C@H]2CC[C@H](C(=O)Nc3ccccc3)CC2)CCC1=O [Example 04-26, (1R,4R)-4-((2-methyl-3-oxocyclopent-1-en-1-yl)amino)-N-phenylcyclohexane-carboxamide] | > 10 | > 10
7 | CC1=C(Nc2ccc(C(=O)O)cc2)CCC1=O [Examples 02-1] | > 10 | 1 to 10
8 | CC1=C(N[C@H]2CC[C@H](C(=O)Nc3ccccc3C)CC2)CCC1=O [Example 04-30, (1R,4R)-4-((2-methyl-3-oxocyclopent-1-en-1-yl)amino)-N-(o-tolyl)cyclohexanecarboxamide] | > 10 | > 10
9 | CC1=C(Nc2ccc(C(=O)NC3CCCCC3)cc2)CCC1=O [Example 03-19, N-cyclohexyl-4-((2-methyl-3-oxocyclopent-1-en-1-yl)amino)benzamide] | 1 to 10 | 1 to 10
10 | N#CC1=C(Nc2cccc(Cl)c2)CCCC1=O [Example 05-32, 2-((3-chlorophenyl)amino)-6-oxocyclohex-1-enecarbonitrile] | > 10 | > 10
11 | CC1=C(Nc2ccc(C(=O)NC3CCCCC3)cc2C)CCC1=O [Example 04-78, N-cyclohexyl-3-methyl-4-((2-methyl-3-oxocyclopent-1-en-1-yl)amino)benzamide] | 1 to 10 | 1 to 10
12 | CNC(=O)c1ccc(NC2=C(C)C(=O)CC2)c(C)c1 [Example 04-77, N,3-dimethyl-4-((2-methyl-3-oxocyclopent-1-en-1-yl)amino)benzamide] | > 10 | 1 to 10
13 | C#Cc1cccc(NC2=C(C)C(=O)CC2)c1 [Examples 06-1] | > 10 | 1 to 10
14 | CC(=O)c1ccc(NC2=C(C)C(=O)CC2)cc1 [Example 01-9] | > 10 | 1 to 10
15 | CC1=C(NC2CCN(C(=O)OC(C)(C)C)CC2)CCC1=O [Example 01-32, tert-Butyl 4-((2-methyl-3-oxocyclopent-1-en-1-yl)amino)piperidine-1-carboxylate] | > 10 | > 10
16 | CC1=C(Nc2cc(C(=O)Nc3cc(C(=O)O)ccc3C)ccc2Cl)CCCC1=O [Example 04-96, 3-(4-Chloro-3-((2-methyl-3-oxocyclohex-1-en-1-yl)amino)benzamido)-4-methylbenzoic acid] | > 10 | 1 to 10
17 | CC1=C(N[C@H]2CC[C@@H](C(=O)Nc3ccc(C)cc3)CC2)CCC1=O [Example 04-40] | > 10 | > 10

Further lines, results first:

Row | IC50 [1] [µM] | IC50 [2] [µM] | Compound
18 | > 10 | > 10 | COc1cccc(NC(=O)c2ccc(NC3=C(C)C(=O)CC3)cc2Cl)c1 [Example 04-47, 2-chloro-N-(3-methoxyphenyl)-4-((2-methyl-3-oxocyclopent-1-en-1-yl)amino)benzamide]
19 | 1 to 10 | 1 to 10 | CC1=C(Nc2cccc(C(=O)Nc3ccccc3C)c2)CCC1=O [Example 04-5]
20 | 1 to 10 | 1 to 10 | CC1=C(Nc2cccc(C(=O)NC3CCCCC3)c2)CCC1=O [Example 04-1]
21 | 1 to 10 | 1 to 10 | COc1ccccc1NC(=O)c1ccc(NC2=C(C)C(=O)CC2)c(C)c1 [Example 04-81, N-(2-methoxyphenyl)-3-methyl-4-((2-methyl-3-oxocyclopent-1-en-1-yl)amino)-benzamide]
22 | 1 to 10 | 1 to 10 | COc1ccccc1NC(=O)c1ccc(NC2=C(C)C(=O)CC2)c(OC)c1 [Example 04-57, 3-methoxy-N-(2-methoxyphenyl)-4-((2-methyl-3-oxocyclopent-1-en-1-yl)amino)-benzamide]
23 | 1 to 10 | 1 to 10 | CC1=C(Nc2cccc(C(=O)Nc3cccc4ccccc34)c2)CCC1=O [Example 04-2]
24 | 1 to 10 | < 1 | CC1=C(Nc2ccc(-c3cn(Cc4ccccc4)nn3)cc2)CCC1=O [Example 06-28]
25 | 1 to 10 | 1 to 10 | COc1cc(C(=O)Nc2ccccc2C)ccc1NC1=C(C)C(=O)CC1 [Example 04-60, 3-methoxy-4-((2-methyl-3-oxocyclopent-1-en-1-yl)amino)-N-(o-tolyl)benzamide]
26 | 1 to 10 | < 1 | COc1ccc(NC(=O)c2cc(NC3=C(C)C(=O)CCC3)cc3ccccc23)cc1 [Example 04-105, N-(4-methoxyphenyl)-3-((2-methyl-3-oxocyclohex-1-en-1-yl)amino)-1-naphthamide]
27 | 1 to 10 | 1 to 10 | COc1ccc(NC(=O)c2ccc(NC3=C(C)C(=O)CC3)cc2OC)cc1 [Example 04-71, 2-methoxy-N-(4-methoxyphenyl)-4-((2-methyl-3-oxocyclopent-1-en-1-yl)amino)-benzamide]
28 | 1 to 10 | 1 to 10 | CC1=C(Nc2ccc(C(=O)Nc3ccccc3C)cc2C)CCC1=O [Example 04-84, 3-methyl-4-((2-methyl-3-oxocyclopent-1-en-1-yl)amino)-N-(o-tolyl)benzamide]
29 | 1 to 10 | 1 to 10 | COc1cc(NC2=C(C)C(=O)CC2)ccc1C(=O)Nc1cccc(C)c1 [Example 04-73, 2-methoxy-4-((2-methyl-3-oxocyclopent-1-en-1-yl)amino)-N-(m-tolyl)benzamide]
30 | > 10 | > 10 | COC(=O)c1ccccc1NC1=C(C)C(=O)CC1 [Example 01-19, methyl 2-((2-methyl-3-oxocyclopent-1-en-1-yl)amino)benzoate]
31 | 1 to 10 | < 1 | COc1cccc(NC(=O)c2ccc(NC3=C(C)C(=O)CC3)c(Cl)c2)c1 [Example 04-18, 3-chloro-N-(3-methoxyphenyl)-4-((2-methyl-3-oxocyclopent-1-en-1-yl)amino)benzamide]
32 | > 10 | > 10 | CC1=C(Nc2ccccc2C(=O)O)CCC1=O [Examples 02-4]
33 | > 10 | > 10 | CC1=C(Nc2ccc(C(=O)N(C)c3ccccc3)cc2)CCC1=O [Example 03-2]
34 | 1 to 10 | 1 to 10 | CC1=C(Nc2ccc(S(=O)(=O)Nc3ccccn3)cc2)CCC1=O [Example 01-31, 4-((2-methyl-3-oxocyclopent-1-en-1-yl)amino)-N-(pyridin-2-yl)benzenesulfonamide]
35 | 1 to 10 | 1 to 10 | COc1cc(NC2=C(C)C(=O)CC2)ccc1C(=O)Nc1ccccc1 [Example 04-68, 2-methoxy-4-((2-methyl-3-oxocyclopent-1-en-1-yl)amino)-N-phenylbenzamide]
36 | 1 to 10 | 1 to 10 | CC1=C(Nc2ccc(C(=O)Nc3cccc(C)c3)cc2C)CCC1=O [Example 04-85, 3-methyl-4-((2-methyl-3-oxocyclopent-1-en-1-yl)amino)-N-(m-tolyl)benzamide]
37 | 1 to 10 | < 1 | CC1=C(Nc2cccc(-c3cn(Cc4ccccc4F)nn3)c2)CCC1=O [Examples 06-8]
38 | 1 to 10 | 1 to 10 | COc1ccc(NC(=O)Cc2ccc(NC3=C(C)C(=O)CCC3)cc2)cc1 [Example 04-99, N-(4-methoxyphenyl)-2-(4-((2-methyl-3-oxocyclohex-1-en-1-yl)amino)phenyl)-acetamide]
39 | 1 to 10 | 1 to 10 | CC1=C(Nc2ccc(C(=O)Nc3ccc(C)cc3)cc2)CCC1=O [Example 03-7]
40 | 1 to 10 | > 10 | CC1=C(Nc2cccc(C(=O)O)c2)CCC1=O [Example 01-3]
41 | > 10 | 1 to 10 | CC1=C(Nc2ccc(C(=O)Nc3ccccc3C)c(Cl)c2)CCC1=O [Example 04-49, 2-chloro-4-((2-methyl-3-oxocyclopent-1-en-1-yl)amino)-N-(o-tolyl)benzamide]
